Measurements from the NIST ThermoML archive (doi:10.1016/j.jct.2017.12.012).
± gives the expanded uncertainty stated by the source.

How the values were obtained:
[1] = activity coefficient (dimensionless); of the first substance listed, at infinite dilution; xn = mol fraction of the nth substance listed; details: 101.33 kPa, Liquid, Chromatography, x1 = 0
[2] = 101.33 kPa, Liquid, Vibrating tube method

SMILES | activity coefficient ([1]; 313.15 K) | activity coefficient ([1]; 323.15 K) | activity coefficient ([1]; 333.15 K) | activity coefficient ([1]; 343.15 K) | activity coefficient ([1]; 353.15 K) | mass density ([2]; 313.15 K) [kg/m3] | mass density ([2]; 323.15 K) [kg/m3] | mass density ([2]; 333.15 K) [kg/m3] | mass density ([2]; 343.15 K) [kg/m3] | mass density ([2]; 353.15 K) [kg/m3]
Cc1cccc(C)c1 [1,3-dimethylbenzene] + CCCCCCCCn1cc[n+](C)c1C.O=S(=O)([N-]S(=O)(=O)C(F)(F)F)C(F)(F)F | 1.18 ± 0.12 | 1.14 ± 0.12 | 1.1 ± 0.11 | 1.04 ± 0.11 | 1.01 ± 0.1 | – | – | – | – | –
CCCCCCC [heptane] + CCCCCCCCn1cc[n+](C)c1C.O=S(=O)([N-]S(=O)(=O)C(F)(F)F)C(F)(F)F | 8.82 ± 0.93 | 7.77 ± 0.82 | 6.89 ± 0.72 | 6.29 ± 0.66 | 5.69 ± 0.6 | – | – | – | – | –
Cc1ccccc1C [1,2-dimethylbenzene] + CCCCCCCCn1cc[n+](C)c1C.O=S(=O)([N-]S(=O)(=O)C(F)(F)F)C(F)(F)F | 1.15 ± 0.12 | 1.08 ± 0.11 | 1.02 ± 0.1 | 0.96 ± 0.1 | 0.93 ± 0.09 | – | – | – | – | –
CCC(C)O (stereo not given) [butan-2-ol] + CCCCCCCCn1cc[n+](C)c1C.O=S(=O)([N-]S(=O)(=O)C(F)(F)F)C(F)(F)F | 2.03 ± 0.21 | 1.74 ± 0.18 | 1.5 ± 0.16 | 1.29 ± 0.13 | 1.11 ± 0.11 | – | – | – | – | –
CCCCC [pentane] + CCCCCCCCn1cc[n+](C)c1C.O=S(=O)([N-]S(=O)(=O)C(F)(F)F)C(F)(F)F | 6.78 ± 0.71 | 5.63 ± 0.59 | 4.81 ± 0.51 | 4.24 ± 0.45 | 3.66 ± 0.38 | – | – | – | – | –
ClC(Cl)(Cl)Cl [tetrachloromethane] + CCCCCCCCn1cc[n+](C)c1C.O=S(=O)([N-]S(=O)(=O)C(F)(F)F)C(F)(F)F | 1.77 ± 0.18 | 1.67 ± 0.17 | 1.57 ± 0.16 | 1.46 ± 0.15 | 1.39 ± 0.14 | – | – | – | – | –
C1=CCCCC1 [cyclohexene] + CCCCCCCCn1cc[n+](C)c1C.O=S(=O)([N-]S(=O)(=O)C(F)(F)F)C(F)(F)F | 3.04 ± 0.32 | 2.77 ± 0.29 | 2.5 ± 0.26 | 2.28 ± 0.24 | 2.1 ± 0.22 | – | – | – | – | –
C1COCCO1 [1,4-dioxane] + CCCCCCCCn1cc[n+](C)c1C.O=S(=O)([N-]S(=O)(=O)C(F)(F)F)C(F)(F)F | 0.64 ± 0.07 | 0.56 ± 0.06 | 0.51 ± 0.06 | 0.47 ± 0.05 | 0.42 ± 0.05 | – | – | – | – | –
Cc1ccccc1 [toluene] + CCCCCCCCn1cc[n+](C)c1C.O=S(=O)([N-]S(=O)(=O)C(F)(F)F)C(F)(F)F | 1.03 ± 0.1 | 0.94 ± 0.1 | 0.87 ± 0.09 | 0.82 ± 0.08 | 0.78 ± 0.08 | – | – | – | – | –
C1CCCCC1 [cyclohexane] + CCCCCCCCn1cc[n+](C)c1C.O=S(=O)([N-]S(=O)(=O)C(F)(F)F)C(F)(F)F | 4.76 ± 0.5 | 4.16 ± 0.44 | 3.75 ± 0.39 | 3.37 ± 0.35 | 3.12 ± 0.33 | – | – | – | – | –
CCCCCC [hexane] + CCCCCCCCn1cc[n+](C)c1C.O=S(=O)([N-]S(=O)(=O)C(F)(F)F)C(F)(F)F | 7.89 ± 0.83 | 6.52 ± 0.69 | 5.57 ± 0.59 | 4.87 ± 0.51 | 4.22 ± 0.44 | – | – | – | – | –
CC#N [acetonitrile] + CCCCCCCCn1cc[n+](C)c1C.O=S(=O)([N-]S(=O)(=O)C(F)(F)F)C(F)(F)F | 0.51 ± 0.06 | 0.45 ± 0.05 | 0.4 ± 0.05 | 0.37 ± 0.04 | 0.34 ± 0.04 | – | – | – | – | –
C=CCCCC [hex-1-ene] + CCCCCCCCn1cc[n+](C)c1C.O=S(=O)([N-]S(=O)(=O)C(F)(F)F)C(F)(F)F | 4.99 ± 0.52 | 4.26 ± 0.45 | 3.65 ± 0.38 | 3.18 ± 0.33 | 2.81 ± 0.3 | – | – | – | – | –
Cc1ccc(C)cc1 [1,4-dimethylbenzene] + CCCCCCCCn1cc[n+](C)c1C.O=S(=O)([N-]S(=O)(=O)C(F)(F)F)C(F)(F)F | 1.17 ± 0.12 | 1.11 ± 0.11 | 1.06 ± 0.11 | 1 ± 0.1 | 0.95 ± 0.1 | – | – | – | – | –
CC(C)O [propan-2-ol] + CCCCCCCCn1cc[n+](C)c1C.O=S(=O)([N-]S(=O)(=O)C(F)(F)F)C(F)(F)F | 2.13 ± 0.22 | 1.82 ± 0.19 | 1.56 ± 0.16 | 1.34 ± 0.14 | 1.17 ± 0.12 | – | – | – | – | –
CCCCCCCC [octane] + CCCCCCCCn1cc[n+](C)c1C.O=S(=O)([N-]S(=O)(=O)C(F)(F)F)C(F)(F)F | 11.1 ± 1.2 | 9.5 ± 1 | 8.12 ± 0.85 | 7.17 ± 0.75 | 6.32 ± 0.66 | – | – | – | – | –
CCCO [propan-1-ol] + CCCCCCCCn1cc[n+](C)c1C.O=S(=O)([N-]S(=O)(=O)C(F)(F)F)C(F)(F)F | 1.94 ± 0.2 | 1.67 ± 0.17 | 1.42 ± 0.15 | 1.22 ± 0.13 | 1.05 ± 0.11 | – | – | – | – | –

SMILES | activity coefficient ([1]; 313.15 K) | activity coefficient ([1]; 323.15 K) | activity coefficient ([1]; 333.15 K) | activity coefficient ([1]; 343.15 K) | activity coefficient ([1]; 353.15 K) | mass density ([2]; 313.15 K) [kg/m3] | mass density ([2]; 323.15 K) [kg/m3] | mass density ([2]; 333.15 K) [kg/m3] | mass density ([2]; 343.15 K) [kg/m3] | mass density ([2]; 353.15 K) [kg/m3]
CCCCCCCCC [nonane] + CCCCCCCCn1cc[n+](C)c1C.O=S(=O)([N-]S(=O)(=O)C(F)(F)F)C(F)(F)F | 14.4 ± 1.5 | 12.1 ± 1.3 | 10.4 ± 1.1 | 9.04 ± 0.95 | 8.04 ± 0.85 | – | – | – | – | –
CC(C)CO [2-methyl-1-propanol] + CCCCCCCCn1cc[n+](C)c1C.O=S(=O)([N-]S(=O)(=O)C(F)(F)F)C(F)(F)F | 2.21 ± 0.23 | 1.88 ± 0.2 | 1.6 ± 0.17 | 1.39 ± 0.14 | 1.21 ± 0.12 | – | – | – | – | –
CCCCCO [pentan-1-ol] + CCCCCCCCn1cc[n+](C)c1C.O=S(=O)([N-]S(=O)(=O)C(F)(F)F)C(F)(F)F | 2.61 ± 0.27 | 2.22 ± 0.23 | 1.92 ± 0.2 | 1.62 ± 0.17 | 1.41 ± 0.15 | – | – | – | – | –
C1CCOC1 [tetrahydrofuran] + CCCCCCCCn1cc[n+](C)c1C.O=S(=O)([N-]S(=O)(=O)C(F)(F)F)C(F)(F)F | 0.54 ± 0.06 | 0.48 ± 0.05 | 0.44 ± 0.05 | 0.4 ± 0.05 | 0.37 ± 0.04 | – | – | – | – | –
ClCCl [dichloromethane] + CCCCCCCCn1cc[n+](C)c1C.O=S(=O)([N-]S(=O)(=O)C(F)(F)F)C(F)(F)F | 0.82 ± 0.08 | 0.75 ± 0.08 | 0.68 ± 0.07 | 0.64 ± 0.07 | 0.58 ± 0.06 | – | – | – | – | –
c1ccccc1 [benzene] + CCCCCCCCn1cc[n+](C)c1C.O=S(=O)([N-]S(=O)(=O)C(F)(F)F)C(F)(F)F | 0.81 ± 0.08 | 0.74 ± 0.08 | 0.68 ± 0.07 | 0.63 ± 0.07 | 0.59 ± 0.06 | – | – | – | – | –
CC(C)CCO [3-methylbutan-1-ol] + CCCCCCCCn1cc[n+](C)c1C.O=S(=O)([N-]S(=O)(=O)C(F)(F)F)C(F)(F)F | 2.46 ± 0.26 | 2.11 ± 0.22 | 1.79 ± 0.19 | 1.55 ± 0.16 | 1.32 ± 0.14 | – | – | – | – | –
CO [methanol] + CCCCCCCCn1cc[n+](C)c1C.O=S(=O)([N-]S(=O)(=O)C(F)(F)F)C(F)(F)F | 1.37 ± 0.14 | 1.26 ± 0.13 | 1.14 ± 0.12 | 1.05 ± 0.11 | 0.96 ± 0.1 | – | – | – | – | –
CCCCCCCCn1cc[n+](C)c1C.O=S(=O)([N-]S(=O)(=O)C(F)(F)F)C(F)(F)F | – | – | – | – | – | 1296.1 ± 2.4 | 1287.4 ± 2.4 | 1278.6 ± 2.4 | 1269.1 ± 2.4 | 1258.2 ± 2.4
CCO [ethanol] + CCCCCCCCn1cc[n+](C)c1C.O=S(=O)([N-]S(=O)(=O)C(F)(F)F)C(F)(F)F | 1.7 ± 0.18 | 1.49 ± 0.15 | 1.31 ± 0.13 | 1.15 ± 0.12 | 1.01 ± 0.1 | – | – | – | – | –
ClC(Cl)Cl [trichloromethane] + CCCCCCCCn1cc[n+](C)c1C.O=S(=O)([N-]S(=O)(=O)C(F)(F)F)C(F)(F)F | 0.77 ± 0.08 | 0.7 ± 0.07 | 0.65 ± 0.07 | 0.6 ± 0.06 | 0.54 ± 0.06 | – | – | – | – | –
CC1CCCCC1 [methylcyclohexane] + CCCCCCCCn1cc[n+](C)c1C.O=S(=O)([N-]S(=O)(=O)C(F)(F)F)C(F)(F)F | 5.67 ± 0.6 | 4.88 ± 0.51 | 4.25 ± 0.45 | 3.79 ± 0.4 | 3.32 ± 0.35 | – | – | – | – | –
CCCCO [butan-1-ol] + CCCCCCCCn1cc[n+](C)c1C.O=S(=O)([N-]S(=O)(=O)C(F)(F)F)C(F)(F)F | 2.31 ± 0.24 | 1.96 ± 0.21 | 1.7 ± 0.18 | 1.46 ± 0.15 | 1.27 ± 0.13 | – | – | – | – | –
CCOC(C)=O [ethyl acetate] + CCCCCCCCn1cc[n+](C)c1C.O=S(=O)([N-]S(=O)(=O)C(F)(F)F)C(F)(F)F | 0.74 ± 0.08 | 0.67 ± 0.07 | 0.61 ± 0.07 | 0.57 ± 0.06 | 0.52 ± 0.06 | – | – | – | – | –
CCCCCCCCCC [decane] + CCCCCCCCn1cc[n+](C)c1C.O=S(=O)([N-]S(=O)(=O)C(F)(F)F)C(F)(F)F | 20.8 ± 2.2 | 16.4 ± 1.7 | 13.5 ± 1.4 | 11.2 ± 1.2 | 9.33 ± 0.98 | – | – | – | – | –
CCc1ccccc1 [ethylbenzene] + CCCCCCCCn1cc[n+](C)c1C.O=S(=O)([N-]S(=O)(=O)C(F)(F)F)C(F)(F)F | 1.37 ± 0.14 | 1.29 ± 0.13 | 1.2 ± 0.12 | 1.14 ± 0.12 | 1.08 ± 0.11 | – | – | – | – | –
CC(C)=O [acetone] + CCCCCCCCn1cc[n+](C)c1C.O=S(=O)([N-]S(=O)(=O)C(F)(F)F)C(F)(F)F | 0.46 ± 0.05 | 0.41 ± 0.05 | 0.37 ± 0.04 | 0.34 ± 0.04 | 0.31 ± 0.04 | – | – | – | – | –
